Measurements: patent publication US8889902B2, “Acetylsalicylic acid salts” (priority 2009, dated 2014)
Marks after values point to notes of the source that are not given here.

Tests used:
[1] = system: hyperthermia induced by intramuscular injection of pyrogenal; experiment: Preventive antipyretic activity, pyrogenal hyperthermia; format: in vivo, Wistar rats
Description: Experiments were conducted on 48 Wistar rats with body mass 165-182 g by intramuscular injection of pyrogenal (Gamalei State Research Institution, Moscow, Russia) in 100 μg dose (Shwarz G Y, Syubaev R D, Vedomosti NCEG lekarstvennyh sredstv MZ RF 2000; 1:44-50 (Rus). Test substances were given p.o. one hour before the pyrogenal injection. Rectal temperature was measured by electric thermometer TERMO before injection of pyrogenal (baseline) and for 3 hours after injection. The antipyretic activity was evaluated by the reduction of hyperthermic reaction 2 hours after injection of pyrogenal that correlated well with the published data (10) about the peak of reaction (Table 6). Ambient temperature was kept at 20-21° C.

[2] = system: carrageneen paw oedema; experiment: Carrageneen oedema, preventive mode; format: in vivo, rats; conditions: preventive 6 times, 4 h
Description: The […] oedema was investigated by established method ([…], Patol Fiziol Eksp Ter, 2002(2):24-7 (Rus) on 42 rats with body mass of 178-220 g: […] The prevention index was calculated as indicated in previous section.

[3] = system: CRP; experiment: CRP levels in blood, carrageneen inflammation model; format: in vivo, rats; conditions: for CRP: 5 h after carrageneen; for CRP increase %: carrageneen control = 100
Description: To evaluate the intensity of the inflammation process the CRP levels were determined by standard method on analyzer ? INTEGRA 400+ ? at the end of experiment (5 hours after injection of carrageneen).

[4] = system: serum lipid levels (C, HDL, LDL, TG); experiment: Chronic hyperlipidemia model (Triton WR1339, 3 weeks); format: in vivo, Wistar rats; conditions: MASA 150 mg/kg/d p.o.; TR 250 mg/kg 3x/week
Description: Male Wistar rats were used. Animals were held in climatized rooms 22±1° C. with relative humidity 60±5%, and 12/12-hour light/dark cycle with free access to water and feed. Initial weight of animals was 220-240 g. Experimental chronical (subchronical) hyperlipidemia/hypercholesterolemia was induced by TR using the method described by Levine and Saltzman (Levine S, Saltzman A, J Pharmacol Toxicol Meth 2007; 55:224-226). Animals received 250 mg/kg of TR solution via tail vein three times a week for 3 weeks. Solutions of test substances or water for Control and TR group was introduced p.o. once a day one hour before injection of TR solution or taking a blood sample according to the following scheme:
Blood for biochemical analyses was obtained after 1, 2 and 3 weeks (on the next day after the TR injection) by cardiac punction under ether narcosis. Serum was separated by centrifugation and analyzed for total C, HDL, LDL and TG levels by commercial kits. Statistics.

[5] = system: tail bleeding; experiment: Tail bleeding time during thrombosis experiment; format: in vivo, rats; conditions: for Tail bleeding time, %: control = 100
Description: Additionally during the thrombosis experiment rat tail bleeding time was measured. The tail was transected 5 mm from the tip with scalpel and the tail was immediately immersed into 37° C. warm isotonic saline until termination of bleeding was noted. Termination of bleeding was defined as the time of complete stop of bleeding with no recurrence of bleeding within the next 30 s.

[6] = system: platelet aggregation; experiment: Platelet aggregation ex vivo after 3 days treatment; format: in vivo, rats
Description: Platelet aggregation was studied using whole blood impedance aggregometry on Multiplate (Multiple Platelet Function Analyzer, Dynabyte Medical, Germany) (Toth O et al, Thromb Haemost 2006; 96:781-788. […] Blood samples for in vitro experiment were collected from healthy donor B. […] In the ex vivo experiment blood was collected into plastic tubes covered with hirudin (Dynabyte Medical, Germany) from narcotized rats that were treated for 3 previous days with test substances p.o. The measurements were performed according to modified Dynabyte Medical protocol. […] After 5 min incubation and stirring at 37° C., measurements were initiated by adding of the appropriate agonist solution (sourced from Dynabyte Medical, Germany): After the thrombosis experiment the narcotized animals who received test substances for 3 days were used for platelet aggregation test ex vivo. […] Blood samples were used for measurement between 30 min and 4 h after collection. The measurements were performed according to modified Dynabyte Medical protocol (see above under Platelet aggregation).

[7] = system: blood flow in the right ear artery; experiment: Cutaneous vasodilatation caused by nicotinic acid, ear artery blood flow; format: in vivo, Wistar rats; conditions: 45 mg/kg s.c.; maximal change to baseline
Description: Model. […] Blood pressure was measured in left carotid artery, ECG recorded by standard II lead. […] Blood flow, ECG and arterial pressure were registered by AD Instruments PowerLab systems and stored in computer for further processing. […] The average blood flow data for each animal were calculated taking into account the average blood pressure and compared with initial and control. […] Statistics.

[8] = system: rat ear skin temperature; experiment: Ear skin temperature rise caused by NA, p.o. administration; format: in vivo, Wistar rats; conditions: MASA 150 mg/kg p.o. alone
Description: Male Wistar rats (280-330 g) were used. Animals were held in groups of 6 in climatized rooms at 22±1° C., relative humidity 60±5%, and 12/12-hour light/dark cycle with free access to drinking water and feed (R3—Lactamin AB, Sweden). For registration of changes in skin temperature of intact rats contactless temperature recording method was used (Papaliodis D et al, Br J Pharmacol 2008; 153:1382-1387). Temperature measurements were performed with a hand-held infrared thermometer (Model Proscan 510, TFA-Dostman). Animals were habituated to handling and to the infrared probe for 3 days before use. Temperature readings from the dorsal side of each ear were recorded without anaesthesia at beginning and during experiment. The ear temperature was measured every 5 min. for a period of up to 60 min. The animals were returned to their cages between measurements. NA, MD and MASA were dissolved in saline and pH was corrected immediately before usage. LA (MK 0524, Cayman Chemicals) was first dissolved in DMSO and then freshly diluted with 0.9% NaCl, on each day of the experiment. The rate of NA and LA combination was based on Summary of Product Characteristics for Tredaptive™ (nicotinic acid/laropiprant) 1000 mg/20 mg modified-release tablets.
9.2.3. Investigation of the Effect of MASA/NA and MD/NA Combination on Skin Temperature at Simultaneous or 45 Min Advance p.o. Administration

[9] = background statement; cited from earlier work
[10] = 10 mg/kg/d p.o., repeated, 3 days
[11] = AA induced, 10 mg/kg/d p.o. 3 days
[12] = ADP induced, 10 mg/kg/d p.o. 3 days
[13] = PGE1 + ADP induced, 10 mg/kg/d p.o. 3 days
[14] = 5 mg/kg/d p.o., repeated, 3 days
[15] = AA induced, 5 mg/kg/d p.o. 3 days
[16] = ADP induced, 5 mg/kg/d p.o. 3 days
[17] = PGE1 + ADP induced, 5 mg/kg/d p.o. 3 days

CC(=O)Oc1ccccc1C(=O)[O-].C[N+](C)(C)NCCC(=O)O [MASA, 3-(trimethylammonioamino)propanoate Acetylsalicylic Acid Addition Salt]
Rectal temperature 120 minutes after injection ([1]; 75 mg/kg p.o. 1 h before pyrogenal): 36.3 ± 0.20 °C
Rectal temperature 120 minutes after injection ([1]; 150 mg/kg p.o. 1 h before pyrogenal): 36 ± 0.21 °C
Rectal temperature 120 minutes after injection ([1]; 300 mg/kg p.o. 1 h before pyrogenal): 35.8 ± 0.16***^$ ° C.
Reduction in % (oedema) ([2]; 150 mg/kg p.o.): 94%
Volume of paw after injection of carrageneen ([2]; 150 mg/kg p.o.): 1.40 ± 0.09**^$ ml
Reduction in % (oedema) ([2]; 300 mg/kg p.o.): 86%
Volume of paw after injection of carrageneen ([2]; 300 mg/kg p.o.): 1.41 ± 0.04**^$ ml
CRP ([3]; 150 mg/kg): 0.19 ± 0.009^#$ mg/l
CRP increase % ([3]; 150 mg/kg): 33%
CRP ([3]; 300 mg/kg): 0.21 ± 0.014 mg/L
CRP increase % ([3]; 300 mg/kg): 67%
HDL after 1 week (HDL1) [4]: 100.1 ± 9.4 mg/dL
HDL after 2 weeks (HDL2) [4]: 113.8 ± 13.1 mg/dL
HDL after 3 weeks (HDL3) [4]: 128.3 ± 18.5 mg/dL
LDL after 1 week (LDL1) [4]: 263.3 ± 19.4 mg/dL
LDL after 2 weeks (LDL2) [4]: 287.6 ± 18.5 mg/dL
LDL after 3 weeks (LDL3) [4]: 261.9 ± 12.6 mg/dL
TG after 1 week (TG1) [4]: 964 ± 94.9 mg/dL
TG after 2 weeks (TG2) [4]: 1079 ± 84 mg/dL
TG after 3 weeks (TG3) [4]: 982 ± 72.7 mg/dL
Total C after 1 week (C1) [4]: 375.9 ± 25.8 mg/dL
Total C after 2 weeks (C2) [4]: 406.7 ± 19.8 mg/dL
Total C after 3 weeks (C3) [4]: 409 ± 39.4 mg/dL
Tail bleeding time ([5]; 10 mg/kg p.o., single dose): 12.1 ± 2.20 min
Tail bleeding time, % ([5]; 10 mg/kg p.o., single dose): 136%
Tail bleeding time [5, 10]: 13.1 ± 2.63 min
Tail bleeding time, % [5, 10]: 152%
AUC [6, 11]: 232 ± 44.1^2&a AU*min
Amax [6, 11]: 48.2 ± 9.7^3&a AU
AUC [6, 12]: 528 ± 46.5^1 AU*min
Amax [6, 12]: 75.5 ± 12.8^2 AU
AUC [6, 13]: 195 ± 35.3^3 AU*min
Amax [6, 13]: 41.4 ± 14.8^2 AU
Changes in blood flow, % [7]: 8.04 ± 2.02^$ %
Temp. 15 min [8]: 29.9 ± 0.33^$$ ° C.
Temp. 30 min [8]: 29.5 ± 0.35^$$$ ° C.
Temp. 45 min [8]: 29.6 ± 0.39^$$ ° C.
Max incr. % ([8]; NA alone = 100): 6%

CC(=O)Oc1ccccc1C(=O)O [ASA, acetylsalicylic acid]
Rectal temperature 120 minutes after injection ([1]; 50 mg/kg p.o. 1 h before pyrogenal): 35.6 ± 0.19***^$ ° C.
Reduction in % (oedema) ([2]; 50 mg/kg p.o.): 70%
Volume of paw after injection of carrageneen ([2]; 50 mg/kg p.o.): 1.55 ± 0.04 mL
CRP ([3]; 100 mg/kg): 0.20 ± 0.018 mg/L
CRP increase % ([3]; 100 mg/kg): 50%
Tail bleeding time ([5]; 5 mg/kg p.o., single dose): 13.8 ± 3.27 min
Tail bleeding time, % ([5]; 5 mg/kg p.o., single dose): 155%
Tail bleeding time [5, 14]: 17.8 ± 3.17^1 min
Tail bleeding time, % [5, 14]: 207%
AUC [6, 15]: 550 ± 31.3^2 AU*min
Amax [6, 15]: 86.1 ± 6.8^2 AU
AUC [6, 16]: 768 ± 53.2 AU*min
Amax [6, 16]: 150.3 ± 13.5 AU
AUC [6, 17]: 794 ± 48.6 AU*min
Amax [6, 17]: 147.2 ± 11.8 AU
solubility in water [9]: about 0.3%
